According to ChEMBL document CHEMBL1201862, “PubChem BioAssay data set” (2004):
Calls of active or inactive are those of the source.

How the values were obtained:
Beta-galactosidase = Beta-galactosidase (Escherichia coli, UniProt Q8VNN2); format: functional
[1] = molecular target: T1, Kappa-type opioid receptor (Homo sapiens, UniProt P41145); format: functional
Mu-type opioid receptor [2] = molecular target: T2, Mu-type opioid receptor (Homo sapiens, UniProt P35372); assay: HTS Image-Based Screen for Agonists of the MOR Receptor. [Related pubchem assays (depositor defined):AID1777, AID1785, AID1786, AID2133]; format: functional
T2 sequence (P35372 whole entry): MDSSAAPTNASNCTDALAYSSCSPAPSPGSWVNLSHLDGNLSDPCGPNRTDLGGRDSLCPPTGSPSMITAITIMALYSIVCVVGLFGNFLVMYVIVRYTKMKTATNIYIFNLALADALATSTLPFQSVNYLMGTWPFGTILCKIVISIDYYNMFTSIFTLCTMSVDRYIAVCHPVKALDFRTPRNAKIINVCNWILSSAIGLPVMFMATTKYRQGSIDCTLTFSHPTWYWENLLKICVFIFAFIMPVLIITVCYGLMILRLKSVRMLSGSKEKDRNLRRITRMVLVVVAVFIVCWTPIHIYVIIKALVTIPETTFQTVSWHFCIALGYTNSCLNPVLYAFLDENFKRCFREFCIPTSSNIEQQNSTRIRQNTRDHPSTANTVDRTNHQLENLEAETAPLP

[3] = molecular target: T1, Kappa-type opioid receptor; format: functional; remark: listed apart in the source
[4] = molecular target: T3, Delta-type opioid receptor (Homo sapiens, UniProt P41143); assay: HTS Image-Based Screen for Agonists of the DOR Receptor. [Related pubchem assays (depositor defined):AID1777, AID1786, AID2133]; format: functional
T3 sequence (P41143 whole entry): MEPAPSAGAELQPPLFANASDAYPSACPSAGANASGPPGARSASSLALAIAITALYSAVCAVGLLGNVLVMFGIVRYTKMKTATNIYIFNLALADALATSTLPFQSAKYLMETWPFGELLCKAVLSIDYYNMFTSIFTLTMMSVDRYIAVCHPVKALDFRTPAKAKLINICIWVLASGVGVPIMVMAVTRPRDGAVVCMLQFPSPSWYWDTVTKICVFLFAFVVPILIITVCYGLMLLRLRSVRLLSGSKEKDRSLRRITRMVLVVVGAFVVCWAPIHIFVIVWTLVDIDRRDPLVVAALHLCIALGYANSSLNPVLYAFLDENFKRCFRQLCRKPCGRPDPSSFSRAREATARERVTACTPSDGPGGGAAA

[5] = molecular target: T3, Delta-type opioid receptor; assay: HTS Image-Based Screen for Antagonists of the DOR Receptor. [Related pubchem assays (depositor defined):AID1777, AID1785, AID1786, AID2133]; format: functional
[6] = molecular target: Microphthalmia-associated transcription factor (Homo sapiens, UniProt O75030); assay: TRPM1 promoter luciferase signal decrease, dose response, MITF inhibitor project, cell-based, SK-MEL-5, cherry-picked, set 3 (AID 493073); format: functional
Microphthalmia-associated transcription factor, sequence (O75030 whole entry): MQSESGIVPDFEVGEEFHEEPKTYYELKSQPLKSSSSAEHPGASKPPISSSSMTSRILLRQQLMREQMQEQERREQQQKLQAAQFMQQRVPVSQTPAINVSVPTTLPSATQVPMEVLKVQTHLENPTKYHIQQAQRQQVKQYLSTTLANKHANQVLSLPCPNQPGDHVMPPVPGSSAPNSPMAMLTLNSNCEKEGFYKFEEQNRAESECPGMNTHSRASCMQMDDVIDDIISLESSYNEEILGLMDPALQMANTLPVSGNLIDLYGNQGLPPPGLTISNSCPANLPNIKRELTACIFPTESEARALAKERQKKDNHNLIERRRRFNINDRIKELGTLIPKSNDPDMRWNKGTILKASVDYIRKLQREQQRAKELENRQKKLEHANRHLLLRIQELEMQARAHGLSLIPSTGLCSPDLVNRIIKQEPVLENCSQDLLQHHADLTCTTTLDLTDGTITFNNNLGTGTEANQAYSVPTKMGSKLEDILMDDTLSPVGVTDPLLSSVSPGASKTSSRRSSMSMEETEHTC

Vero = assay: cells; format: functional; conditions: Chlorocebus sabaeus
[7] = molecular target: T3, Delta-type opioid receptor; assay: DOR agonists, SAR follow-up, image-based (AID 2370); format: functional
[8] = molecular target: T1, Kappa-type opioid receptor; assay: SAR analysis of small molecule agonists of the kappa opioid receptor via a luminescent beta-arrestin assay. [Related pubchem assays (depositor defined):AID1777, AID1786, AID1966, AID2133, AID2136, AID2348, AID2352, AID2357, AID2359, AID2370, AID2420, AID2478, AID2491, AID2492, AID2493, AID2497, AID2498, AID2500, AID449737, AID488822, AID488842]; format: functional
Mu-type opioid receptor [9] = molecular target: T2, Mu-type opioid receptor; assay: MOR agonists by imaging, SAR follow-up, image-based (AID 2352); format: functional
[10] = molecular target: T1, Kappa-type opioid receptor; assay: KOR agonist analogs, imaging readout, SAR follow-up, image-based (AID 2359); format: functional
[11] = molecular target: T1, Kappa-type opioid receptor; assay: KOR antagonists by imaging, SAR follow-up, image-based (AID 2348); format: functional
[12] = molecular target: T3, Delta-type opioid receptor; assay: DOR antagonists, SAR follow-up, image-based (AID 2357); format: functional
Mu-type opioid receptor [13] = molecular target: T2, Mu-type opioid receptor; assay: MOR antagonists, SAR follow-up, image-based (AID 2420); format: functional;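 note: compounds added before stimulation of receptor with agonist DAMGO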
[14] = non-specific cell cytotoxicity, dose response, cytotoxicity control for PAX8 inhibitor project, plate reader, dry powder samples (AID 743021); format: functional, cell-based
[15] = molecular target: G-protein coupled receptor 55 (Homo sapiens, UniProt Q9Y2T6); assay: GPR55 antagonists, SAR follow-up, counter-screen for GPR35 antagonist project, imaging, image-based (AID 2397); format: functional
G-protein coupled receptor 55, sequence (Q9Y2T6 whole entry): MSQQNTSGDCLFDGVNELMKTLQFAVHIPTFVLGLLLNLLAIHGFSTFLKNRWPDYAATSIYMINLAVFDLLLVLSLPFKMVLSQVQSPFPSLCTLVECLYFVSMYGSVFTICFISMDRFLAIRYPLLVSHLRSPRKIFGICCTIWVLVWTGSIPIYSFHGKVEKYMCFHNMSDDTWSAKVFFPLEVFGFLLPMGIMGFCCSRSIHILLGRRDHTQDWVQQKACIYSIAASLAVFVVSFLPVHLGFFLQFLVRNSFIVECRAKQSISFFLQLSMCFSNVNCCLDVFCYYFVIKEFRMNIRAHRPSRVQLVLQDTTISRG

[16] = molecular target: G-protein coupled receptor 35 (Homo sapiens, UniProt Q9HC97); assay: SAR Analysis for the identification of Selective Antagonists of ERK1/2 Activity in GPR35-Overexpressing U2OS Cells. [Related pubchem assays: 2079, 2058 ]; format: functional, cell-based
G-protein coupled receptor 35, sequence (Q9HC97 whole entry): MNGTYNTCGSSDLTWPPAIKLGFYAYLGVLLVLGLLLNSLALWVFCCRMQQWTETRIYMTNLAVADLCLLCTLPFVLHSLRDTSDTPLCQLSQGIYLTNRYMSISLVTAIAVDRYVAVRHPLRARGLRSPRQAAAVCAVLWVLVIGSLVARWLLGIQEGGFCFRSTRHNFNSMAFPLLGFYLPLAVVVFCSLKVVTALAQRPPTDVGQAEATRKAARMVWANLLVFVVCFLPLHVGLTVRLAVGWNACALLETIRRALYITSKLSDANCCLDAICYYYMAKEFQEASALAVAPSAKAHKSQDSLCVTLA

Melanocortin receptor 4 = Melanocortin receptor 4 (Homo sapiens, UniProt P32245); format: functional, cell-based;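 note: Cell-based assay with luminescence read-out, confirmatory dose-response testing for agonist activity of biased ligands at MC4R; human U2OS cells with tagged receptor and beta-arrestin; potency of agonists that increase receptor coupling to beta-arrestin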
Melanocortin receptor 4, sequence (P32245 whole entry): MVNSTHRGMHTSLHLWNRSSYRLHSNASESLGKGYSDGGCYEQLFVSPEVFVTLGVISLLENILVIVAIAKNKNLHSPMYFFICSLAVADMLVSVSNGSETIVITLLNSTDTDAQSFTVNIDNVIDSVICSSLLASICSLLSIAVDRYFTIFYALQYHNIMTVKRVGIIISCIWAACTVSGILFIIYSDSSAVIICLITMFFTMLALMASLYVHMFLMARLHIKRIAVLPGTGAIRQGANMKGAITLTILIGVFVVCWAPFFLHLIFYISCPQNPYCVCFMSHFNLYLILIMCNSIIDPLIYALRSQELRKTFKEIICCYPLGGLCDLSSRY

Paired box protein Pax-8 = Paired box protein Pax-8 (Homo sapiens, UniProt Q06710); assay: inhibitors of PAX8-driven TPO luciferase reporter, dose response, RMG-I cells, cherry-pick (AID 687027); format: functional, cell-based;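 note: luciferase reporter driven by Pax8 target thyroperoxidase promoter measured by SteadyGlo luminescence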
Paired box protein Pax-8, sequence (Q06710 whole entry): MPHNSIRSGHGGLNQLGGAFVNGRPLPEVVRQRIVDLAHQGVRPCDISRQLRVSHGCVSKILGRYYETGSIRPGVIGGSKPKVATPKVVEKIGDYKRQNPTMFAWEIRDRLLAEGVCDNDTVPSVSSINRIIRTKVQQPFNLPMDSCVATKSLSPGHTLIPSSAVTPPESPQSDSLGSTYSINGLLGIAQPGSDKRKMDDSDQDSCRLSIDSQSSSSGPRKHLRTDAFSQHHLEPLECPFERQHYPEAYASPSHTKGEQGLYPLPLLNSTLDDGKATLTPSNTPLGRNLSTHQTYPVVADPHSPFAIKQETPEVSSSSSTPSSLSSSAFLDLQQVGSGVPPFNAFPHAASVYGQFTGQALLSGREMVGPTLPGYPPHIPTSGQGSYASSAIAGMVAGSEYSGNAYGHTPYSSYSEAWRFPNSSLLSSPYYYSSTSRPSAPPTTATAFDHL

[17] = molecular target: T1, Kappa-type opioid receptor; assay: SAR analysis of small molecule agonists of the kappa opioid receptor via a luminescent beta-arrestin assay - Set 3. [Related pubchem assays (depositor defined):AID1777, AID1785, AID1786, AID1966, AID2133, AID2136, AID2284, AID2500]; format: functional
[18] = molecular target: T4, Tyrosine-protein phosphatase non-receptor type 22 (Homo sapiens, UniProt Q9Y2R2); format: functional
T4 sequence (Q9Y2R2 whole entry): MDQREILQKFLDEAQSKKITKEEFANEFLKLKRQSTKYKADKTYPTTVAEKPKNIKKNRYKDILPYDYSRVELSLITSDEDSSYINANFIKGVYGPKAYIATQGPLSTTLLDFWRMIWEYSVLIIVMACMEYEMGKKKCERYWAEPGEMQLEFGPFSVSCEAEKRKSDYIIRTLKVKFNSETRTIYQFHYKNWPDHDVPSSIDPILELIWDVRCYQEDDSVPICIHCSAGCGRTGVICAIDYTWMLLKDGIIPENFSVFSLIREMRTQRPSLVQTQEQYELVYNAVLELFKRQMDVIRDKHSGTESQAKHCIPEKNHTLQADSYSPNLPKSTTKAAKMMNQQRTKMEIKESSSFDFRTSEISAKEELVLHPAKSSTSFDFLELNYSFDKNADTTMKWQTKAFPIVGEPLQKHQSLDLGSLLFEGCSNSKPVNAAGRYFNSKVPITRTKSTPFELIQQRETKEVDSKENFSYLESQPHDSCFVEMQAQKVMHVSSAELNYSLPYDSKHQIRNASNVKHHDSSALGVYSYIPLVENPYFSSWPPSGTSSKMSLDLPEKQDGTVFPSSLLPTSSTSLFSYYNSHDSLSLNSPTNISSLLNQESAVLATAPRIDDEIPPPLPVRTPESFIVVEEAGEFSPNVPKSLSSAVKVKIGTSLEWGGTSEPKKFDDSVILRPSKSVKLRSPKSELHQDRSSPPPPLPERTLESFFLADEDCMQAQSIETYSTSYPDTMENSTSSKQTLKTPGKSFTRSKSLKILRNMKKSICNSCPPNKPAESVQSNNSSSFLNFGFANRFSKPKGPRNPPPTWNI

[19] = molecular target: T5, Low molecular weight phosphotyrosine protein phosphatase (Homo sapiens, UniProt P24666); format: functional; conditions: read-out: IC50_Mean
T5 sequence (P24666 whole entry): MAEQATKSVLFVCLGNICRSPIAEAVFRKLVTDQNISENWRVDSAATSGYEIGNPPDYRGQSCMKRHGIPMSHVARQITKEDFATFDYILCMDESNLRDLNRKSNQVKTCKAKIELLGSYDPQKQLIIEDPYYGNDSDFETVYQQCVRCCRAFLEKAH

[20] = molecular target: T6, Tyrosine-protein phosphatase non-receptor type 5 (Homo sapiens, UniProt P54829); assay: STEP phosphatase inhibitors, confirmation, biochemical, fluorescence intensity, uHTS hits (AID 602372); format: functional; conditions: read-out: IC50_Mean
T6 sequence (P54829 whole entry): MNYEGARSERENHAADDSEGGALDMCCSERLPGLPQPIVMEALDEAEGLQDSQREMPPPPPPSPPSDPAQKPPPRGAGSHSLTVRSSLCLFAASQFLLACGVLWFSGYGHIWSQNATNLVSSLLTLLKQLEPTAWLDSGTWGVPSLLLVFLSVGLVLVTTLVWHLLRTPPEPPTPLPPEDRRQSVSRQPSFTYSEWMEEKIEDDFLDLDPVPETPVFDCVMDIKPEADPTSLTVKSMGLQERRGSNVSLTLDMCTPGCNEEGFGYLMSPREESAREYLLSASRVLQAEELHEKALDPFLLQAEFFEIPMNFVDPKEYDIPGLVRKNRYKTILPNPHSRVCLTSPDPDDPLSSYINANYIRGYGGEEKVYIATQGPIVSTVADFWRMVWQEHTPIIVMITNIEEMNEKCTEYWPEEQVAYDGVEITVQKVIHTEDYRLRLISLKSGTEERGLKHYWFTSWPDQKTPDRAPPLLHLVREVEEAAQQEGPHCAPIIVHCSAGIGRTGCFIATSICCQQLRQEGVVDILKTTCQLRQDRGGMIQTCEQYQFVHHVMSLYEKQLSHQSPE

[21] = molecular target: T4, Tyrosine-protein phosphatase non-receptor type 22; assay: PTPN22 phosphatase inhibition, dose response, selectivity assay for STEP inhibitor project, biochemical (AID 624241); format: functional
[22] = molecular target: T4, Tyrosine-protein phosphatase non-receptor type 22; assay: LYP phosphatase inhibition for selectivity, dose response, selectivity assay for LMPTP inhibitor project, biochemical, fluorescence, LYP catalytic domain (AID 652006); format: functional; conditions: read-out: IC50_Mean
[23] = molecular target: T5, Low molecular weight phosphotyrosine protein phosphatase; format: functional; conditions: read-out: IC50_Mean; remark: listed apart in the source
[24] = molecular target: T7, Carboxy-terminal domain RNA polymerase II polypeptide A small phosphatase 1 (Homo sapiens, UniProt Q9GZU7); assay: inhibitors of CTDSP1, concentration-response testing, biochemical assay, absorbance-based, actives from ultra-high-throughput screening (AID 540297); format: functional
T7 sequence (Q9GZU7 whole entry): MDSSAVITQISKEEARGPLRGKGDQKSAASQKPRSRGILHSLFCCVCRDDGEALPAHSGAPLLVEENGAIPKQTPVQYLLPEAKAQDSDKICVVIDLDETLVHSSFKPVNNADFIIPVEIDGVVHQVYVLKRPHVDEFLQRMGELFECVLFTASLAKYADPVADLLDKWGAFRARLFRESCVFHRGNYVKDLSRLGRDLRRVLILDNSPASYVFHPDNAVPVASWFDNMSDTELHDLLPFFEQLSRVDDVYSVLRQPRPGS

[25] = molecular target: Dual specificity protein phosphatase 3 (Homo sapiens, UniProt P51452); assay: VHR phosphatase inhibition, dose response, selectivity assay for STEP inhibitor project, biochemical (AID 602374); format: functional; conditions: read-out: IC50_Mean
Dual specificity protein phosphatase 3, sequence (P51452 whole entry): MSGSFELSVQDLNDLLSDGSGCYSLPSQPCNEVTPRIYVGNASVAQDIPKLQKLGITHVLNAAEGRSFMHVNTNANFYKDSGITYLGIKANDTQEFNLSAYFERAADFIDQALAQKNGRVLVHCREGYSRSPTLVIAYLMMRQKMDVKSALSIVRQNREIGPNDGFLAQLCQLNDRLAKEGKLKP

[26] = molecular target: T8, Tyrosine-protein phosphatase non-receptor type 7 (Homo sapiens, UniProt P35236); format: functional
T8 sequence (P35236 whole entry): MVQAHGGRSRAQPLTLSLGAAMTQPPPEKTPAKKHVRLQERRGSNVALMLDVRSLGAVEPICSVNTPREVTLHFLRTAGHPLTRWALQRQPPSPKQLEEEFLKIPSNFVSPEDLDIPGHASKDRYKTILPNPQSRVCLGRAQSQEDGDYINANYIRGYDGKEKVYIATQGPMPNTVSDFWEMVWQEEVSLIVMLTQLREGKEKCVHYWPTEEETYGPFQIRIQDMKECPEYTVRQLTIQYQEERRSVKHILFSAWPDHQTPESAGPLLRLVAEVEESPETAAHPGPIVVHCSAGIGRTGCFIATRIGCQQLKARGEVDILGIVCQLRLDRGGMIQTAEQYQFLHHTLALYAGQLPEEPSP

[27] = molecular target: T4, Tyrosine-protein phosphatase non-receptor type 22; format: functional; remark: listed apart in the source
[28] = molecular target: T9, Tyrosine-protein phosphatase non-receptor type 11 (Homo sapiens, UniProt Q06124); assay: SHP2 phosphatase inhibition, dose response, selectivity assay for STEP inhibitor project, biochemical (AID 602367); format: functional; conditions: read-out: IC50_Mean
T9 sequence (Q06124 whole entry): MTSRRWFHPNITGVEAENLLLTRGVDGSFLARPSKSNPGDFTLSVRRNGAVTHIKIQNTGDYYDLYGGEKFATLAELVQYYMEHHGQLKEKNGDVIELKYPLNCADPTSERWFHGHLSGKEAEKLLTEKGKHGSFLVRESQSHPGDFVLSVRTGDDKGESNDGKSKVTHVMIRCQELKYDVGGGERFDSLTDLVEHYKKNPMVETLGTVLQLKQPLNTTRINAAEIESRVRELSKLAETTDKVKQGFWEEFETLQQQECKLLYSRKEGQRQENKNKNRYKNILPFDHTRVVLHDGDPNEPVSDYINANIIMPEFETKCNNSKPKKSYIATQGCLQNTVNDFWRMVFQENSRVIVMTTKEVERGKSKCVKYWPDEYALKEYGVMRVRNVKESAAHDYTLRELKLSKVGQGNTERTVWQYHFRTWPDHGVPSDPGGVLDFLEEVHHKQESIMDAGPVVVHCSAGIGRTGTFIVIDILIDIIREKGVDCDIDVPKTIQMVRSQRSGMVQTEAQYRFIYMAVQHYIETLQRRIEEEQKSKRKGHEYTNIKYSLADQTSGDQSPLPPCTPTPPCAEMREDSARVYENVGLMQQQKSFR

T1 sequence (P41145 whole entry): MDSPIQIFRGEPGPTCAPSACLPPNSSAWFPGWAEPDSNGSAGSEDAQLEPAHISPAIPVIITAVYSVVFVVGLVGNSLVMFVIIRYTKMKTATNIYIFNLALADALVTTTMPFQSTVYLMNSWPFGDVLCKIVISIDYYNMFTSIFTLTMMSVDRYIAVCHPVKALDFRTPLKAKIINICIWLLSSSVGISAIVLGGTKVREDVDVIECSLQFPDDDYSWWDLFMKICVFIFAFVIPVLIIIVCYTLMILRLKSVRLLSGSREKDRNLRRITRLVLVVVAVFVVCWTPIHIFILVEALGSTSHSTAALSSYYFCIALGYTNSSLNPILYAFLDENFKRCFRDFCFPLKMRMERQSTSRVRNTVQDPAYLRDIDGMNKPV
Beta-galactosidase, sequence (Q8VNN2 whole entry): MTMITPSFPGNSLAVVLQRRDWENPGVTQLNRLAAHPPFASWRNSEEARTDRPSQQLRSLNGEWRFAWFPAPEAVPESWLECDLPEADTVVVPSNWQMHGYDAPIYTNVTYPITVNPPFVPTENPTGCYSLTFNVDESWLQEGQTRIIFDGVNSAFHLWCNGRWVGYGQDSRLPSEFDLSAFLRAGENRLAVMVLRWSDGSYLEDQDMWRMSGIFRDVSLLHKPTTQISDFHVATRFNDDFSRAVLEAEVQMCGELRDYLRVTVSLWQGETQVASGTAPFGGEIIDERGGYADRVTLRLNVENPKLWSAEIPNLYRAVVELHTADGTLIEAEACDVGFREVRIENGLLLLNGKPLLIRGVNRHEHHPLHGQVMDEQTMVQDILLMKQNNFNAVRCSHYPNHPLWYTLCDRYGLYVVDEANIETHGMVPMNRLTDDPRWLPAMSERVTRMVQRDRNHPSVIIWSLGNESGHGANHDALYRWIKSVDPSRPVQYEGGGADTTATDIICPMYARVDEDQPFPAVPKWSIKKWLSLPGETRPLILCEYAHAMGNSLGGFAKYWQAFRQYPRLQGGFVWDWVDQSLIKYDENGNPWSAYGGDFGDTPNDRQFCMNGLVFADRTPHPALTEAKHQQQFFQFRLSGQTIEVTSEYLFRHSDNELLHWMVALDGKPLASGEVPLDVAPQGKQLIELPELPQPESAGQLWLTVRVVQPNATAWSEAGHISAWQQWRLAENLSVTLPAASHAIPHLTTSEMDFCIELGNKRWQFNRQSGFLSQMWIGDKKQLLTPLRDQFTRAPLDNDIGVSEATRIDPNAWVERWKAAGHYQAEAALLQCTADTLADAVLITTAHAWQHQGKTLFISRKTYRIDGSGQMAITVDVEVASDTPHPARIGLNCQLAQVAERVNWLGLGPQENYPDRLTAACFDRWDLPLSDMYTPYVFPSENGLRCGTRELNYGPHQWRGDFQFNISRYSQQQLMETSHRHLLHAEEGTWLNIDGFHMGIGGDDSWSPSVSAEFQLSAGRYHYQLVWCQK

## COc1cc(OC)cc(-c2nnc(NC(=O)c3ccc4c(c3)OCCO4)o2)c1
Beta-galactosidase
  EC50: > 31.5 µM (inactive)
[1]
  IC50: 13.3 µM (active)
Mu-type opioid receptor [2]
  EC50: > 32 µM (inactive)
[3]
  IC50: > 32 µM
[4]
  EC50: > 32 µM (inactive)
[5]
  IC50: > 32 µM (inactive)

## CC(C)N=C(NS(=O)(=O)c1ccccc1)C(Cl)(Cl)Cl
[6]
  AC50: 6.76 µM (active)
Vero
  CC50: 11.5 µM (active)

## COc1ccc(C(=O)CSc2nnc(-c3ccccn3)n2Cc2ccco2)cc1
[7]
  EC50: > 32 µM (inactive)
[8]
  EC50: > 10 µM (inactive)
Mu-type opioid receptor [9]
  EC50: > 32 µM (inactive)
[10]
  EC50: > 32 µM (inactive)
[11]
  IC50: > 32 µM (inactive)
[12]
  IC50: > 32 µM (inactive)
Mu-type opioid receptor [13]
  IC50: > 32 µM (inactive)

## Clc1ccc(Cn2ncc3c(N4CCN(c5ccccc5)CC4)ncnc32)cc1
[14]
  AC50: 33.9 µM (active)
[15]
  IC50: 29.3 µM (inactive)
[16]
  IC50: > 32 µM (not active)
Melanocortin receptor 4
  EC50: > 89.1 µM (inactive)
Paired box protein Pax-8
  AC50: 8.65 µM (active)

## COc1ccc(Cn2c(SCc3ccc(Cl)c(Cl)c3)nnc2-c2ccccn2)cc1
[17]
  EC50: 17.4 µM (inactive)

## O=C(COc1ccc(/C=N/NC(=O)c2ccc(O)cc2)cc1)Nc1cccc([N+](=O)[O-])c1
[18]
  IC50: 37.6 µM (active)
[19]
  IC50: 15.8 µM (active)
[20]
  IC50: 8.06 µM (active)
[21]
  IC50: 48.9 µM (inactive)
[22]
  IC50: 11.6 µM (active)
[23]
  IC50: 11.2 µM (active)
[24]
  IC50: 2.98 µM (active)
[25]
  IC50: 3.06 µM (active)
[26]
  IC50: 49.1 µM (active)
[27]
  IC50: 64.7 µM (active)
[28]
  IC50: 2.41 µM (active)
